According to publication PMC8752738, “A propolis-derived small molecule ameliorates metabolic syndrome in obese mice by targeting the CREB/CRTC2 transcriptional complex” (Nature Communications, 2022):
Several values for one entry are separate records, joined by “and”; a condition that tells them apart may be missing. Equal values may be shown once. Entries after “also recorded” stand apart in the source; their conditions may differ.

Columns and labels:
CREB-CRTC2 interaction = molecular target: T1, CREB-CRTC2 interaction (Homo sapiens, UniProt P16220); experiment: CREB–CRTC2 mammalian two-hybrid assay (GAL4-Luc reporter); assay type: cell-based; set-up: CREB/CRTC2 -luc activity %: concentration or dose not given beside the values; settings: for relative Gal4-luc activity %: Fig 3b replicates
T1 construct: expressed in transfected cells; host or cells: HEK293T
T1 sequence (P16220 whole entry, the tested form may be a part): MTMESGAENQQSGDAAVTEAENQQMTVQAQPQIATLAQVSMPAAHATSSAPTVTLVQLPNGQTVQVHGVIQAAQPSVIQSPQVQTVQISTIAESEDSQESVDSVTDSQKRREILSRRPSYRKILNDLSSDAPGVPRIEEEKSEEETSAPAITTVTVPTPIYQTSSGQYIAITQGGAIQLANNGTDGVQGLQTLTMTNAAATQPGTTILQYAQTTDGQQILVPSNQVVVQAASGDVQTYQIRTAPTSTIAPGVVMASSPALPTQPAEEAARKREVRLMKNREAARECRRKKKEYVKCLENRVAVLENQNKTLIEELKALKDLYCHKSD

[1] = molecular target: T2, GST-CREB / FLAG-CRTC2 interaction (Homo sapiens, UniProt P16220); experiment: GST-pull-down of FLAG-CRTC2 from HEK293T lysates by GST-CREB beads; assay type: biochemical
T2 construct: made in house; host or cells: GST-CREB beads (pGEX5X-1); FLAG-CRTC2 expressed in HEK293T cells
T2 sequence (P16220 whole entry): as the sequence (P16220 whole entry, the tested form may be a part) above
Source text: To further confirm whether APC disrupts the protein association between CREB and CRTC2, we performed GST-pull-down assays in which GST-CREB beads were used to immunoprecipitated FLAG-tagged CRTC2 proteins that were expressed in HEK293T cells. As expected, APC attenuated the amounts of FLAG-CRTC2 proteins recovered by GST-CREB beads from HEK293T cell lysates (Fig. 2a). […] In contrast, APC had little effect on the association of GST-CREB with HA-P300 (Supplementary Fig. 2a), as well as the interaction between endogenous CRTC2 and CBP proteins (Fig. 2c). […]
Fig. 2 APC blocks interaction between CREB and CRTC2. a Analysis of GST-CREB immunoprecipitated with overexpressed FLAG-CRTC2 from the lysates of HEK293T cells. […] Data are represented as mean ± SEM); P values were determined by one-way ANOVA followed Dunnett’s multiple comparisons test. b Analysis of HA-CRTC2 immunoprecipitated with endogenous CREB from primary hepatocyte lysates. […] Data are represented as mean ± SEM; P values were determined by one-way ANOVA followed Dunnett’s multiple comparisons test. c Immunoblotting analysis of endogenous CREB, CRTC2, and CBP interaction by an anti-CRTC2 antibody from the lysate of primary hepatocytes. […] Data are represented as mean ± SEM; P values were determined by one-way ANOVA followed Dunnett’s multiple comparisons test (compared with APC = 0). […]

SMILES: CC(C)=CCc1cc(C=CC(=O)O)cc(CC=C(C)C)c1O [APC, 3,5-diprenyl-4-hydroxycinnamic acid]
- remaining activity at 1000 µM (CREB-CRTC2 interaction; 16 h, Figure 9b, Log10(M) -3, single replicates, read-out: Gal4-LUC reporter activiry, %): 0.439%
- remaining activity at 100 µM (CREB-CRTC2 interaction; 16 h, Figure 9b, Log10(M) -4, single replicates, read-out: Gal4-LUC reporter activiry, %): 0.257%
- remaining activity at 1 µM (CREB-CRTC2 interaction; 16 h, Figure 9b, Log10(M) -6, single replicates, read-out: Gal4-LUC reporter activiry, %): 36.2%
- remaining activity at 0.1 µM (CREB-CRTC2 interaction; 16 h, Figure 9b, Log10(M) -7, single replicates, read-out: Gal4-LUC reporter activiry, %): 71.6%
- remaining activity at 0.01 µM (CREB-CRTC2 interaction; 16 h, Figure 9b, Log10(M) -8, single replicates, read-out: Gal4-LUC reporter activiry, %): 92.8%
- remaining activity at 0.001 µM (CREB-CRTC2 interaction; 16 h, Figure 9b, Log10(M) -9, single replicates, read-out: Gal4-LUC reporter activiry, %): 74.9%
- remaining activity at 0.0001 µM (CREB-CRTC2 interaction; 16 h, Figure 9b, Log10(M) -10, single replicates, read-out: Gal4-LUC reporter activiry, %): 102%
- relative Gal4-luc activity % (CREB-CRTC2 interaction; APC Log10(M) -3): 0.3266% and 0.2637% and 0.3128%
- relative Gal4-luc activity % (CREB-CRTC2 interaction; APC Log10(M) -4): 10.2018% and 10.3248% and 10.277%
- relative Gal4-luc activity % (CREB-CRTC2 interaction; APC Log10(M) -5): 61.3194% and 69.9978% and 76.9726%
- relative Gal4-luc activity % (CREB-CRTC2 interaction; APC Log10(M) -6): 65.67% and 82.3932% and 92.7658%
- relative Gal4-luc activity % (CREB-CRTC2 interaction; APC Log10(M) -7): 64.5839% and 85.9224% and 107.618%
- relative Gal4-luc activity % (CREB-CRTC2 interaction; APC Log10(M) -8): 99.4977% and 99.5841% and 100.918%
- relative Gal4-luc activity % (CREB-CRTC2 interaction; APC Log10(M) -9): 107.021% and 111.522% and 103.779%
- Relative Gal4-LUC activity, single replicates (CREB-CRTC2 interaction; Figure 1f, CREB-CRTC2 two-hybrid assay, DMSO control about 100, listed as P3): 21.4874 and 38.8421 and 27.0437
- reporter activity of CREB–CRTC2 two-hybrid assay (CREB-CRTC2 interaction; HEK293T, isolated compound 25 μM, listed as P3): significantly inhibited; also recorded: most potent
- Related Gal4-luc % (CREB-CRTC2 interaction; Supp. Fig.10 a, individual replicates, Ctrl about 97): 42.290% and 38.150% and 46.110% and 51.003%
- Related Gal4-luc %, group mean (Test details, Mean 2) (CREB-CRTC2 interaction; Supp. Fig.10 a, mean of n=4, CTRL mean 96.58): 44.39%
- CREB/CRTC2 -luc activity % (CREB-CRTC2 interaction; Supp. Fig.10 b, individual replicates, Ctrl about 100): 51.481% and 56.411% and 65.126%
- IC50 (CREB-CRTC2 interaction; cell-based two-hybrid assay, HEK293T cells, read-out: IC50 for disrupting CREB–CRTC2 interaction): ~24.5 µM and 24.5 µM
- Pull down FLAG/GST band dentsity (FLAG in IP fraction) ([1]; Fig 2a source data, replicates, GST-CREB beads +, FLAG-CRTC2 +, APC + (10 μM)): 1.359 FOLDS and 1.3596 FOLDS and 1.382 FOLDS
- FLAG-CRTC2 recovered by GST-CREB beads ([1]; HEK293T lysates, APC 10 μM): attenuated
